Laboratory results reported in PMC4564171 (PLoS ONE, 2015).
Where “and” joins values, the source holds several entries; their conditions need not be identical. Identical values can stand only once.

Legend:
[1] = test system: 60 bp pvirB FID DNA probe; experiment: Fluorescence intercalator displacement (FID) assay, 60 bp probe; assay type: binding, Shigella flexneri; settings: for 60 bp pvirB FID probe %fluorescence: ethidium bromide 45 μM, probe 1.5 μM
Protocol: (§1) The FID protocol was based on previously published studies and was conducted in triplicate. For the assay, black, half-area, 96-well plates (Corning, Twerksbury, MA) were used. First, 70 μL of ethidium bromide in Tris Buffer (0.1 M Tris HCl, 0.1 M NaCl, pH 8.0) was added to all wells. The concentration of ethidium bromide was contingent upon the length of the DNA probe that was used. For the 60 bp pvirB FID DNA probe, the final ethidium bromide concentration used was 45 μM; whereas, for the 10 bp pvirB (51–60) FID DNA probe, the final ethidium bromide concentration used was 7.5 μM. Next, 10 μL of either pvirB FID DNA probes (10 or 60 bp) in TE/NaCl buffer (see above) or 10 μL of TE/NaCl buffer (background fluorescence control) were added to the appropriate wells of the plate. The final concentrations of the pvirB FID DNA probes were 1.5 μM. Lastly, 20 μL of test compound (either 19615 or Berenil) in 10% DMSO Tris Buffer or 20 μL of 10% DMSO Tris Buffer (100% fluorescence control) were added to the appropriate wells of the plate. The final concentrations of each test compound ranged from 12.5 μM to 100 μM. After the addition of all reagents, the plates were protected from light and allowed to equilibrate for 30 min on an orbital shaker at room temperature. Following equilibration, fluorescence was measured […] using a Biotek Synergy H1 plate reader (Winooski, VT). The average background fluorescence was subtracted from all data generated and %fluorescence was calculated for all wells containing compound via the following formula: %fluorescence=Ftest/F100%^*100 where: Ftest = the average fluorescence value obtained for each test compound and F100% = the average fluorescence value obtained for each 100% fluorescence control.

[2] = test system: 10 bp pvirB FID DNA probes; experiment: Fluorescence intercalator displacement (FID) assay, 10 bp probes; assay type: binding, Shigella flexneri; settings: for 10 bp pvirB 51–60 FID probe %fluorescence: ethidium bromide 7.5 μM, probe 1.5 μM
Protocol: as §1, with “The final concentrations of each test compound ranged from 12.5 μM to 100 μM.” left out

S. flexneri = test system: S. flexneri; design: method as in PMID 24549153; settings: at the tested concentrations; cited from earlier work
[3] = test system: E. coli RNA polymerase (RNAP) binding to the lac promoter (plac); experiment: Control EMSA of E. coli RNA polymerase binding to the lac promoter; settings: compound 100 μM; RNAP 2.7 μM; 5'Cy5-plac probe 0.25 μM
Protocol: [picture] Figure C: EMSA depicting E. coli RNA Polymerase (RNAP) Binding to the lac Promoter (plac) in the Presence of 19615. […] For the EMSA a hybrid 2% acrylamide, 1% agarose gel was used which was made with and ran in a 1X TGE buffer (25 mM Tris base, 190 mM glycine, 1 mM EDTA, pH 8.3). The sequence of the 5’Cy5-plac DNA probe is as follows: 5’-gtgccctggtctgg[…]-3’ (lowercase text represents LUEGO sequence, uppercase text represents lac promoter sequence).

E. coli RNA polymerase (RNAP) binding to the lac promoter (plac), sequence (P0A7Z4 whole entry): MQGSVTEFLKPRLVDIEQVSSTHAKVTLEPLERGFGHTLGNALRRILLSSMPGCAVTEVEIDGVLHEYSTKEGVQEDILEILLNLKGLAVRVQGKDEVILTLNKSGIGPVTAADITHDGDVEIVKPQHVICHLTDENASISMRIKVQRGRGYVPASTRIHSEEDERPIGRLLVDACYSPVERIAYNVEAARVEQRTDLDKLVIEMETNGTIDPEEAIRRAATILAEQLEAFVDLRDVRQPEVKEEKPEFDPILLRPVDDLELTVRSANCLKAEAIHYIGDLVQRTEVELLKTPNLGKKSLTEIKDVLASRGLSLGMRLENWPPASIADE
E. coli RNA polymerase (RNAP) binding to the lac promoter (plac), sequence (P0A800 whole entry, further chain): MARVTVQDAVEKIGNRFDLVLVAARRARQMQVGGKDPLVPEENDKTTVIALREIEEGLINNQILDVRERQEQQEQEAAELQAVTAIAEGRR
E. coli RNA polymerase (RNAP) binding to the lac promoter (plac), sequence (P0A8T7 whole entry, further chain): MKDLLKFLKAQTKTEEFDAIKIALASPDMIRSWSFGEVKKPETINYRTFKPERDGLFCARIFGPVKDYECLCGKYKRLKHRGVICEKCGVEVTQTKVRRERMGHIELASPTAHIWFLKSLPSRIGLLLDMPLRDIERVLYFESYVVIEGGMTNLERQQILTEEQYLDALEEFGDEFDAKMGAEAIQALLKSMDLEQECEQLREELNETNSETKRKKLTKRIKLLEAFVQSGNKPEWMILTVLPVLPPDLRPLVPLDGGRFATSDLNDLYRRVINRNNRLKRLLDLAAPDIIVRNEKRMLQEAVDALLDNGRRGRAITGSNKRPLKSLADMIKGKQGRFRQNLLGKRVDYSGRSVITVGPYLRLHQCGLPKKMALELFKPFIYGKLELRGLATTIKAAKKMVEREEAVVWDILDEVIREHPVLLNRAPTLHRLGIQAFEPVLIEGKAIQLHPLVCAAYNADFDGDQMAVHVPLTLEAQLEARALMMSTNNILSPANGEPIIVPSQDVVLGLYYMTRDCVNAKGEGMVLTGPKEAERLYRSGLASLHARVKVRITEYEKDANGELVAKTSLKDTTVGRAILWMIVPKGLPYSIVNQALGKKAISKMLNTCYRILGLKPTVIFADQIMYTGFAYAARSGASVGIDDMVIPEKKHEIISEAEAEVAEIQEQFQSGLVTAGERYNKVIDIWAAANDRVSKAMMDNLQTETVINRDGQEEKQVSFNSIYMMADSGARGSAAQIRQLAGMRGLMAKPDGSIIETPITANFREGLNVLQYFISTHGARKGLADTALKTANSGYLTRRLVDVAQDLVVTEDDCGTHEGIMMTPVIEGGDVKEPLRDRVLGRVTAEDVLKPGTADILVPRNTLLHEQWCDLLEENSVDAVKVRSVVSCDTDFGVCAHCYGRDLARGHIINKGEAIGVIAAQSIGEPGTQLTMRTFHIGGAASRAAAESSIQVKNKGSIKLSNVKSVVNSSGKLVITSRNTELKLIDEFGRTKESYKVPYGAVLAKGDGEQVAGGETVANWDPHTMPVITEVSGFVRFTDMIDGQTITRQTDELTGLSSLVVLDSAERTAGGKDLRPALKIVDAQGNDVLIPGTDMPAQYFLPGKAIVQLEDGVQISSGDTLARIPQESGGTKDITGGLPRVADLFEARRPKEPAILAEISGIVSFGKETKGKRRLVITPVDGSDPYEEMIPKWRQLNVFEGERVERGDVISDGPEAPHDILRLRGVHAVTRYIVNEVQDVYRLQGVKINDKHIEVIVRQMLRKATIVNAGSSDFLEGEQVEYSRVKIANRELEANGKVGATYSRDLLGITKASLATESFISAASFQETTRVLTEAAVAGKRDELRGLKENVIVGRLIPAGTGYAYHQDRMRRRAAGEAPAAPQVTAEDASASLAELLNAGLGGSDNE
E. coli RNA polymerase (RNAP) binding to the lac promoter (plac), sequence (P00579 whole entry, further chain): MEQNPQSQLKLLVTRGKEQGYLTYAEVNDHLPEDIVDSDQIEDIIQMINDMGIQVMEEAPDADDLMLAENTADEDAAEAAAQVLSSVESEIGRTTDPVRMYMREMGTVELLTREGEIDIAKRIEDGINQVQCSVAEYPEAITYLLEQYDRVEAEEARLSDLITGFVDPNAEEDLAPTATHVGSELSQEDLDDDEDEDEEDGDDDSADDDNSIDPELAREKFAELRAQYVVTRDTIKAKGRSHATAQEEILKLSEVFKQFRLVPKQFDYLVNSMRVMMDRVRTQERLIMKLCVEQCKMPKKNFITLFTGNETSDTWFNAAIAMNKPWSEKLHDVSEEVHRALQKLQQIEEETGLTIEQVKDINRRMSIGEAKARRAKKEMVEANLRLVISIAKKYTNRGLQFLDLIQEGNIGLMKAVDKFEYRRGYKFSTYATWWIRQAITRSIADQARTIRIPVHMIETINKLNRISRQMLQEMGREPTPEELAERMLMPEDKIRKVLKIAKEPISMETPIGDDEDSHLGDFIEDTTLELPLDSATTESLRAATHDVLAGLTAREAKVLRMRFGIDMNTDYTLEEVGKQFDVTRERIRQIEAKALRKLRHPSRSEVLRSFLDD
E. coli RNA polymerase (RNAP) binding to the lac promoter (plac), sequence (P0A8V2 whole entry, further chain): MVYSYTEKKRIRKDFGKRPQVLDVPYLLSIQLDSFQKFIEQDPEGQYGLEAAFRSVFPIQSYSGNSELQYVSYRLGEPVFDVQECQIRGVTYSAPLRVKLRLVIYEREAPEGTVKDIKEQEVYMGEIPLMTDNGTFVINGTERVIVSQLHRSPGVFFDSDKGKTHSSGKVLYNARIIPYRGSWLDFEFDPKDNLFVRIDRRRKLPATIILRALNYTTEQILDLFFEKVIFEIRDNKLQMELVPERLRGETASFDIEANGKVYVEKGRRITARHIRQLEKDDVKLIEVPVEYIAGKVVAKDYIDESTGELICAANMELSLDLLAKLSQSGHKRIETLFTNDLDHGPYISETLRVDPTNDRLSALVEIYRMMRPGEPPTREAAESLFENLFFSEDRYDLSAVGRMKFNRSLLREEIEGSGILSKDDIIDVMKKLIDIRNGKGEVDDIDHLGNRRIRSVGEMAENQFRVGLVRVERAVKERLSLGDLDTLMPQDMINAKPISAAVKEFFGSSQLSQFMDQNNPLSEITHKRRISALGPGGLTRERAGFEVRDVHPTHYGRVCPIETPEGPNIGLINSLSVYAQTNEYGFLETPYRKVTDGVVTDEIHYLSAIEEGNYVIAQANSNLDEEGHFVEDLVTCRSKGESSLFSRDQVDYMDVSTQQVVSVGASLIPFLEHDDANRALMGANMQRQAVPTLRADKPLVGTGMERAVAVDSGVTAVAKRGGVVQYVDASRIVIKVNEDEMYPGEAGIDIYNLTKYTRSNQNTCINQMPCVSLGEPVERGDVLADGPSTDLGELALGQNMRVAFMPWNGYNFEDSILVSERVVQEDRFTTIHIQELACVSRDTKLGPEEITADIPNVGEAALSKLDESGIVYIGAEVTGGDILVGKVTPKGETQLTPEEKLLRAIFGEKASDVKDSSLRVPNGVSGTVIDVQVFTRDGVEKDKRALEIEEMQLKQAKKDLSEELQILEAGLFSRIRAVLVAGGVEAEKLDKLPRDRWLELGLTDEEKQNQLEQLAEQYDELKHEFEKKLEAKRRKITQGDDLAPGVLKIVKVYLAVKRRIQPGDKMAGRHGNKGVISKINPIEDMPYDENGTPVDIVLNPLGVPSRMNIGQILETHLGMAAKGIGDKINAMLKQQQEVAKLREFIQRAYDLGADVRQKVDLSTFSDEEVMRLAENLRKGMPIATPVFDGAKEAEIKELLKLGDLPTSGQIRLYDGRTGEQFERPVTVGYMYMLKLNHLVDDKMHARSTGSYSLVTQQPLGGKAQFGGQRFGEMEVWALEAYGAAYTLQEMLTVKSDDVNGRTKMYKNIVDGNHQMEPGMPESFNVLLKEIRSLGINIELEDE

SMILES: CN(C)CCOc1nc(-c2ccccc2)nc2c1oc1ccccc12 [compound 19615]
- Displacement of ethidium bromide from the pvirB DNA probes (FID) ([1]; 12.5 to 100 μM, both 60 bp and 10 bp probes): not able to displace ethidium bromide
- 60 bp pvirB FID probe %fluorescence ([1]; compound 12.5 μM): 93% ± 3%
- 60 bp pvirB FID probe %fluorescence ([1]; compound 25 μM): 97% ± 2%
- 60 bp pvirB FID probe %fluorescence ([1]; compound 50 μM): 95% ± 2%
- 60 bp pvirB FID probe %fluorescence ([1]; compound 100 μM): 93% ± 3%
- %fluorescence, 10 bp fragment pvirB 21-30 ([2]; compound 2 μM, preliminary FID screen, 5'-AATAAAGATA-3'): 92% ± 1%
- %fluorescence, 10 bp fragment pvirB 31-40 ([2]; compound 2 μM, preliminary FID screen, 5'-AATTGCATCA-3'): 94% ± 2%
- %fluorescence, 10 bp fragment pvirB 1-10 ([2]; compound 2 μM, preliminary FID screen, 5'-AGAATATTAT-3'): 93% ± 6%
- %fluorescence, 10 bp fragment pvirB 41-50 ([2]; compound 2 μM, preliminary FID screen, 5'-ATCCAGCTAT-3'): 94% ± 1%
- %fluorescence, 10 bp fragment pvirB 51-60 ([2]; compound 2 μM, preliminary FID screen, 5'-TAAAATAGTA-3'): 92% and 92% ± 0%
- %fluorescence, 10 bp fragment pvirB 11-20 ([2]; compound 2 μM, preliminary FID screen, 5'-TCTTTTATCC-3'): 95% ± 3%
- 10 bp pvirB 51–60 FID probe %fluorescence ([2]; compound 12.5 μM): 97% ± 2%
- 10 bp pvirB 51–60 FID probe %fluorescence ([2]; compound 25 μM): 97% ± 3%
- 10 bp pvirB 51–60 FID probe %fluorescence ([2]; compound 50 μM): 97% ± 2%
- 10 bp pvirB 51–60 FID probe %fluorescence ([2]; compound 100 μM): 95% ± 1%
- Toxicity to S. flexneri (S. flexneri): not toxic
- Effect on RNAP binding to the lac promoter (EMSA) [3]: no effect on RNAP binding
